Reference: publication PMC6302136, “Quantitative Chemotherapeutic Profiling of Gynecologic Cancer Cell Lines Using Approved Drugs and Bioactive Compounds^” (Translational Oncology, 2018)
Like-named read-outs stand apart in the source and are kept apart here. *1 amine or outer side, *2 acyl side, *3 side chain or, on linkers, in order; H or OH if unused. Where a SMILES comes first, the peptide text is derived from it. Bridges are numbered along the chain shown (N, C = ends). Roman numbers before positions name the chains, in order. [ ]: non-standard residue; d: D form. Actinocin(9to1) = Cc1c2oc3c(C)ccc(C(=O)[*:1])c3nc-2c(C(=O)[*:2])c(N)c1=O; NMeV = CN[C@H](C(=O)O)C(C)C; Sar = CNCC(=O)O

How the values were obtained:
[1] = tested on: ovarian cancer cell lines; test: qHTS ATPlite cell viability, ovarian cancer cell lines; assay type: cell-based, human; settings: for IC50 / Average SI: Ovarian cell line killer; for IC50: mean of cell lines fulfilling criteria, 48 h, read-out: Average IC50; for Average SI: vs HEK 293T, >100 = inactive in HEK293T
HeLa cells = test: qHTS ATPlite cell viability, HeLa cells; assay type: cell-based, human; settings: for Avg SI: HeLa selective compounds, vs HEK 293T; for IC50: HeLa, confirmation screen, 48 h
[2] = tested on: 11 gynecologic cancer cell lines; test: qHTS ATPlite cell viability, gynecologic cancer cell lines (ovarian, cervical, placental); assay type: cell-based, human; settings: for Cell Lines Active: number of the 11 cancer cell lines in which the compound is active (<1 μM potency, >70% efficacy)
Protocol: (§1) The ATPlite luminescence assay system assay kit was used to determine cell viability. The reagent was reconstituted and prepared as described by the manufacturer. To measure the cell death caused by the compounds, cells were cultured in 4 μl of media for 16 hours at 37°C with 5% CO2 in assay plates, followed by the addition of DMSO or 16 SOC chemotherapeutic compounds dissolved in DMSO. SOC compounds were dosed at 11 concentrations (1:3 dilution) in quadruplicate from 57.5 μM to 0.977 nM using the automated Wako 1536 Pin Tool workstation and incubated at 37°C with 5% CO2 for 24, 48, or 72 hours. Four microliters of ATPlite, the ATP monitoring reagent, was then added to each well of the assay plates using the Multidrop Combi reagent dispenser followed by incubation for 15 minutes at room temperature. The resulting luminescence was measured using the ViewLux plate reader. Data were normalized for each drug using the largest luminescence value as 100% full cell viability (0% cell killing) and to the smallest luminescence value 0% viability (100% cell killing).
(§2) A qHTS [79], in which each compound was assayed in five concentrations (0.092, 0.46, 2.3, 11.5, and 57.5 μM), was performed for the primary compound screen using the NPC [80] and NPACT drug libraries at NCATS. The OBGYN cancer and HEK 293T control cells were seeded into 1536-well assay plates at 1000 cells per 4 μl/well and incubated at 37°C in 5% CO2 for 48 hours. The ATPlite assay to determine the IC50 values for each compound was conducted as described above. Plates were processed on the fully integrated Kalypsys robotic system.

[3] = tested on: ovarian and placental cancer cell lines; test: qHTS ATPlite cell viability, ovarian + placental cancer cell lines; assay type: cell-based, human; settings: for IC50: Homo sapiens, 48 h; for Average SI: vs HEK 293T, >100 = inactive in HEK293T
Protocol: as §1, §2

PA-1 cells = test: ATP content (ATPlite) cell viability assay in PA-1 cells; assay type: cell-based, human
CAOV-3 cells = test: ATP content (ATPlite) cell viability assay in CAOV-3 cells; assay type: cell-based, human; settings: assay optimization
Protocol: as §1

[4] = tested on: placental cancer cell lines (JAR, JEG-3); test: qHTS ATPlite cell viability, placental cancer cell lines; assay type: cell-based, human; settings: for Average SI: vs HEK 293T, >100 = inactive in HEK293T
Protocol: as §1
The ATPlite assay to determine the IC50 values for each compound was conducted as described above. Plates were processed on the fully integrated Kalypsys robotic system.

[5] = intravenous dose; read-out: Cmax; cited from earlier work
TOV-21-G cells = test: qHTS ATPlite cell viability, TOV-21-G cells; assay type: cell-based, human; settings: for IC50: Homo sapiens, TOV21G, 48 h; for Avg SI: TOV-21-G selective compounds, vs HEK 293T, >100 = inactive in HEK293T
HEK 293T cells [6] = test: cells; settings: HEK 293T, this screen (ATPlite), 48 h
Protocol: as §1, §2

HEK 293T cells [7] = tested on: HEK 293T cells; parameters: method as in PMID 31498718; settings: CellTiterGlo, cited from earlier work
[8] = Ovarian + placental cancer cell line killer
[9] = Homo sapiens, JEG-3, Placental cancer cell line killer, mean of cell lines fulfilling criteria, 48 h, read-out: Average IC50
[10] = Homo sapiens, average IC90 over the cell lines in which the compound is active, read-out: IC90
[11] = Placental cancer cell line killer

CNc1nccc(-c2cccnc2Oc2cc(C(=O)Nc3cccc(C(F)(F)F)c3)ccc2C)n1 [AMG-Tie2-1]
IC50 [1]: 15900 ± 9710 nM
Average SI [1]: >100

Cc1cc(Nc2nc(N[C@@H](C)c3ccc(F)cc3)c(C#N)cc2F)[nH]n1 [AZ-960]
IC50 ([1]; Homo sapiens): 12000 ± 7750 nM
Average SI [1]: >100

COc1cc(N2CCC(N)CC2)ccc1Nc1ncc(Cl)c(-c2c[nH]c3ccccc23)n1 [AZD3463]
Avg SI (HeLa cells): 30.3
IC50 (HeLa cells): 638 nM

Cc1c2oc3c(C)ccc(C(=O)N[C@@H]4C(=O)N[C@H](C(C)C)C(=O)N5CCC[C@H]5C(=O)N(C)CC(=O)N(C)[C@@H](C(C)C)C(=O)O[C@@H]4C)c3nc-2c(C(=O)N[C@@H]2C(=O)N[C@H](C(C)C)C(=O)N3CCC[C@H]3C(=O)N(C)CC(=O)N(C)[C@@H](C(C)C)C(=O)O[C@@H]2C)c(N)c1=O [Actinomycin D] (I: T[dV]P[Sar][NMeV] / II: T[dV]P[Sar][NMeV]; ester I:1-I:C, II:1-II:C; linker I:N-II:N via Actinocin(9to1))
IC90 ([2]; Homo sapiens, read-out: average IC90): 512 nM
IC50 ([3]; read-out: Average IC50 (μM)): 0.78 ± 0.222 µM
Average SI [3, 8]: >100
Average SI ([3]; Ovarian + placental cancer cell line killer, listed as actinomycin D): > 100

COc1cccc2c1C(=O)c1c(O)c3c(c(O)c1C2=O)C[C@@](O)(C(=O)CO)C[C@@H]3O[C@H]1C[C@H](N)[C@H](O)[C@H](C)O1 [Adriamycin]
IC50 (PA-1 cells; Homo sapiens, PA-1, 24 hours incubation, assay optimization, read-out: IC50 (PA-1)): 109 nM
IC50 (PA-1 cells; Homo sapiens, PA-1, 48 hours incubation, assay optimization, read-out: IC50 (PA-1)): 11.8 nM
IC50 (PA-1 cells; Homo sapiens, PA-1, 72 hours incubation, assay optimization, read-out: IC50 (PA-1)): 3.59 nM
IC50 (PA-1 cells; Homo sapiens, PA-1, confirmation screen, 48 h, read-out: Avg IC50): 576 nM
Avg SI (PA-1 cells; PA-1 selective compounds, vs HEK 293T, >100 = inactive in HEK293T): 7.02
IC50 (CAOV-3 cells; Homo sapiens, Caov-3, 24 hours incubation): 15900 nM
IC50 (CAOV-3 cells; Homo sapiens, Caov-3, 48 hours incubation): 98.2 nM
IC50 (CAOV-3 cells; Homo sapiens, Caov-3, 72 hours incubation): 73.7 nM

COc1ccc2cc3[n+](cc2c1OC)CCc1cc2c(cc1-3)OCO2 [Berberine]
IC50 [4, 9]: 4.41 ± 0.662 µM

CC(C)C[C@H](NC(=O)[C@H](Cc1ccccc1)NC(=O)c1cnccn1)B(O)O [Bortezomib]
IC90 [2, 10]: 218 nM
IC50 ([2]; Homo sapiens, average over the cell lines in which the compound was active, read-out: average IC50): 150 nM
Cell Lines Active [2]: 8
Cmax [5]: 580 nM

CC(=O)OC(C)(C)/C=C/C(=O)[C@](C)(O)[C@H]1[C@H](O)C[C@@]2(C)[C@@H]3CC=C4[C@H](C[C@H](O)C(=O)C4(C)C)[C@]3(C)C(=O)C[C@]12C [Curcubitacin B]
IC50 (PA-1 cells; 48 hours incubation, assay optimization, read-out: IC50 (PA-1)): 63.2 nM
IC50 (PA-1 cells; 72 hours incubation, assay optimization, read-out: IC50 (PA-1)): 61.8 nM
IC50 (CAOV-3 cells; 24 hours incubation): 18.1 nM
IC50 (CAOV-3 cells; 48 hours incubation): ~20.6 nM
IC50 (CAOV-3 cells; 72 hours incubation): 22.2 nM

Cc1cnc(Nc2ccc(OCCN3CCCC3)cc2)nc1Nc1cccc(S(=O)(=O)NC(C)(C)C)c1 [Fedratinib]
IC50 ([3]; Ovarian + placental cancer cell line killer, mean of cell lines fulfilling criteria, read-out: Average IC50): 13.1 ± 7.51 µM
Average SI [3, 8]: >100
Average SI ([3]; Ovarian + placental cancer cell line killer, listed as fedratinib): > 100
selective killing of ovarian cancer lines ([1]; SI of 5 or greater, six ovarian lines): selectivity killed all six ovarian cancer lines

COc1cc(Nc2ncc(F)c(Nc3ccc4c(n3)N(COP(=O)(O)O)C(=O)C(C)(C)O4)n2)cc(OC)c1OC [Fostamitinib]
IC50 ([1]; Homo sapiens): 6240 ± 4060 nM
Average SI [1]: >100
Average SI ([1]; listed as fostamatinib): > 100

C[C@@H](Oc1cc(-n2cnc3ccc(CN4CCN(C)CC4)cc32)sc1C(N)=O)c1ccccc1C(F)(F)F [GSK461364]
IC50 [4, 9]: 3.52 ± 0.133 µM
Average SI [4, 11]: 8.81 ± 0.333

C[C@@H](Oc1ccc2[nH]nc(/C=C/c3cnn(CCO)c3)c2c1)c1c(Cl)cncc1Cl [LY2874455]
Avg SI (HeLa cells): 38.8
IC50 (HeLa cells; Homo sapiens): 240 nM

CNC(=O)c1nn(C)c2c1C(C)(C)Cc1cnc(Nc3ccc(N4CCN(C)CC4)cc3)nc1-2 [Milciclib, N,1,4,4-tetramethyl-8-{[4-(4-methylpiperazin-1-yl)phenyl]amino}-4,5-dihydro-1H-py razolo[4,3-h]quinazoline-3-carboxamide]
IC50 (TOV-21-G cells; TOV-21-G, confirmation screen, read-out: Avg IC50): 0.0897 µM
Avg SI (TOV-21-G cells): 50.1

COc1cc(N2CCC(N3CCN(C)CC3)CC2)ccc1Nc1ncc(Cl)c(Nc2ccccc2S(=O)(=O)C(C)C)n1 [NVP-TAE684]
IC50 ([2]; toxic compounds, average over all cancer cell lines, 48 h, mean ± S.D., read-out: Average IC50): 15700 ± 10000 nM
Average SI ([2]; toxic compounds, selectivity index vs HEK 293T, average over all cancer cell lines, mean ± S.D.): 4.87 ± 7.61
Efficacy (%) (HEK 293T toxicity) (HEK 293T cells [6]): 91.8%
IC50 (HEK 293T cells [6]; read-out: IC50 (HEK 293T toxicity)): 23400 nM
Avg SI (HeLa cells): 28.0
IC50 (HeLa cells): 835 nM
Efficacy (%) (independent screen, HEK 293T) (HEK 293T cells [7]): 126%
Independent Screen (confirmation of HEK 293T toxicity) (HEK 293T cells [7]): Confirmed toxic
IC50 (HEK 293T cells [7]; independent screen): 3650 nM

N=C(N)c1ccc(OCCCCCOc2ccc(C(=N)N)cc2)cc1 [Nebupent]
IC50 [4, 9]: 4.9 ± 1.02 µM
Average SI [4, 11]: >100

CCOc1cc2ncc(C#N)c(Nc3ccc(OCc4ccccn4)c(Cl)c3)c2cc1NC(=O)/C=C/CN(C)C [Neratinib]
IC50 (TOV-21-G cells; read-out: Avg IC50 (μM)): 0.619 µM
Avg SI (TOV-21-G cells): >100

O=C(Nc1cccnc1)N1CCC(Cc2cccc(Oc3ccc(C(F)(F)F)cn3)c2)CC1 [PF-3845]
IC50 [4, 9]: 9.31 ± 1.15 µM
Average SI [4, 11]: >100

C=C(C)[C@H]1Cc2c(ccc3c2O[C@@H]2COc4cc(OC)c(OC)cc4[C@@H]2C3=O)O1 [Rotenone]
IC50 ([4]; Homo sapiens, JEG-3, 48 h, read-out: Average IC50 (μM)): 0.0418 ± 0.0134 µM
Average SI [4, 11]: 19.5 ± 6.26

CNC(=O)c1ccccc1Nc1nc(Nc2ccc(N3CCOCC3)cc2OC)ncc1Cl [TAE226]
IC50 [1]: 5320 ± 1420 nM
Average SI [1]: 8.76 ± 2.40

CCS(=O)(=O)c1cccc(-c2cc(C(=O)NC3CCN(C)CC3)c(C)c3[nH]c4ncc(C)cc4c23)c1 [TAK 901]
Avg SI (HeLa cells): 12.6
IC50 (HeLa cells; Homo sapiens): 699 nM

CC[C@@H]1C(=O)N(C)c2cnc(Nc3ccc(C(=O)N[C@H]4CC[C@H](N5CCN(CC6CC6)CC5)CC4)cc3OC)nc2N1C(C)C [Volasertib]
IC90 [2, 10]: 90 nM
Cell Lines Active [2]: 4
IC50 [4, 9]: 0.0709 ± 0.00735 µM
Average SI [4, 11]: 131 ± 13.5

C=CC(=O)Nc1cccc(Oc2nc(Nc3ccc(N4CCN(C)CC4)cc3)ncc2Cl)c1 [WZ3146]
IC50 [1]: 12300 ± 8520 nM
Average SI [1]: >100

i-Bet-151
IC50 ([4]; Placental cancer cell line killer, mean of cell lines fulfilling criteria, 48 h, read-out: Average IC50): 19.3 ± 9.13 µM
Average SI [4, 11]: >100
